# Source: US20230414754A1, “CONDITIONAL CONTROL OF UNIVERSAL CAR T CELLS THROUGH STIMULUS-REACTIVE ADAPTORS” (UNIVERSITY OF PITTSBURGH-OF THE COMMONWEALTH SYSTEM OF …, priority 2020, published 2023)
# Tests used:
# CD20+ Raji target cells = experiment: SNAP-CAR T cell activation (CD69) with MTGase-produced site-specific adaptor; format: cell-based, human; details: CD69 after 24 h
# Protocol: (§1) 55. FIGS. 26A and 26B show MTGase enzymatic antibody-adaptor conjugation. […] CD69 T cell activation marker expression on the CAR T cells was evaluated after 24 h. n=3 biol. reps.
# (§2) 187. In a complementary, enzymatic conjugation approach we synthesized the terminal amine 11 from the commercially available PEG 10 (FIG. 12A), and target a conserved glutamine located in each of the heavy chains of the de-glycosylated IgG1 antibody through selective modification by the enzyme MTGase (FIG. 12B). This generates uniform conjugates in quantitative yields adding exactly two modifications using conserved glutamines as the only γ-carbonyl amide donors on dei-glycosylated IgGls, This method that has been used for dozens of clinical use ADCs. […] In addition, the site-specific adaptor was efficient at inducing T cell activity (FIG. 26B).
# SNAPtag = experiment: Incubation of MTGase-made adaptor with SNAP protein, SDS-PAGE; format: biochemical; details: SNAPtag 2 eq. per BG
# Protocol: as §1, §2
# SNAP-synNotch receptor = SNAP-synNotch receptor activation in Jurkat cells co-incubated with target cells (TagBFP output); format: cell-based
# Excerpt: 51. […] The system triggers Gal4-VP64 transcription factor-driven TagRFP expression. […] TagRFP levels are reported as mean fluorescence intensity (MFI), n=3 biologically independent experiments±s.d.
# 176. We created a universal adaptor synNotch to direct receptor activation and the resulting transcriptional gene output in response to interaction with BG-conjugated adaptor antibodies on the surface of target cells (FIG. 22). We cloned a SNAP-synNotch receptor consisting of the SNAPtag domain fused to the Notch core protein, and the Gal4-transcription factor (to turn on a gal4 promoter-driven TagBFP gene) and transduced Jurkat cells. […] Receptor activation was sensitive and tunable, with a significant response at an antibody concentration as low as 0.04 μglmL and increasing to a peak at 0.25 μg/mL. Response gene activation then decreased with increasing antibody indicative of a “hook effect”—as expected in ternary complex formation. BG-conjugated antibodies targeting other antigens were also capable of activating the SNAP-synNotch receptor in an antigen-specific manner indicating universality of the cell re-programming approach.
Substance,inducing T cell activity (CD20+ Raji target cells),BG labeling by incubation with SNAP protein (SNAPtag),function of universal adaptor synNotch system (SNAP-synNotch receptor)
RTX-BG: PEG2-BG labeled Rituximab adaptor made via MTGase conjugation,efficient,near complete,
mSA2,,,ineffective
